Results: patent US20250179103A1, “6-OXODECAHYDROPYRROLO[1,2-A][1,5]DIAZOCINE AND 6-OXODECAHYDRO-4H-PYRROLO[2,1-D][1,5]THIAZOCINE DERIVATIVES AS STAT3 AND STAT6 MODULATORS FOR THE TREATMENT OF CANCER AND INFLAMMATORY CONDITIONS” (Recludix Pharma, Inc., priority 2022, published 2025)

Experiments:
[1] = target: T1, Recombinant STAT3 protein (STAT3(G127-I722)) (Homo sapiens, UniProt P40763); assay: STAT3 Fluorescence Polarization (FP) Assay; format: binding; details: STAT3(G127-I722) 25 nM, probe 5-FAM-GpYLPQTV-NH2 2 nM, 45-minute incubation
T1 construct: Recombinant STAT3 protein (STAT3(G127-I722))
T1 sequence (P40763 127-722): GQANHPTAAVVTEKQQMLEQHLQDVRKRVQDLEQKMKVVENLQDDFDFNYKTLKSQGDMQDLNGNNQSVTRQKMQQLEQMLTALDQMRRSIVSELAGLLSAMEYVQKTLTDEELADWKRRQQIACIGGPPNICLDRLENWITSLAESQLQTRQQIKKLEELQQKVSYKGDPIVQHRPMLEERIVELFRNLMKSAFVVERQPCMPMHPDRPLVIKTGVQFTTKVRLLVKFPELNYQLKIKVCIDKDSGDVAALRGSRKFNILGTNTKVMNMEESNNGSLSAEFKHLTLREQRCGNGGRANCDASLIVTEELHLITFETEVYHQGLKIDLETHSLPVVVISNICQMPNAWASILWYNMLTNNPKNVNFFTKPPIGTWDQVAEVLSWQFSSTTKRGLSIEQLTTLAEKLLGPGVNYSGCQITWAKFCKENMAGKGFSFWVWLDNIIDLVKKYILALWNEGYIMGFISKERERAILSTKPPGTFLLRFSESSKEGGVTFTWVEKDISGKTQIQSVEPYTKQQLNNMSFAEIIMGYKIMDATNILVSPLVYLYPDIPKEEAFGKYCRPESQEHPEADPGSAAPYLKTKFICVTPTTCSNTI
In short: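 Fluorescence polarization after a 45-min room-temperature incubation measured compound displacement of a 2 nM fluorescein-labelled phosphotyrosine peptide (5-FAM-GpYLPQTV-NH2) from 25 nM recombinant STAT3(G127-I722). Buffer was 10 mM HEPES pH 7.4 with 1% DMSO final. IC50s were fitted by nonlinear regression of mP against log concentration.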

[2] = target: T2, Recombinant STAT6 protein (STAT6(W123-T658)) (Homo sapiens, UniProt P42226); assay: STAT6 Fluorescence Polarization (FP) Assay; format: binding; details: STAT6(W123-T658) 250 nM, probe 5-FAM-ApYKPFQDLI-NH2 2 nM, 45-minute incubation
T2 construct: Recombinant STAT6 protein (STAT6(W123-T658))
T2 sequence (P42226 123-658): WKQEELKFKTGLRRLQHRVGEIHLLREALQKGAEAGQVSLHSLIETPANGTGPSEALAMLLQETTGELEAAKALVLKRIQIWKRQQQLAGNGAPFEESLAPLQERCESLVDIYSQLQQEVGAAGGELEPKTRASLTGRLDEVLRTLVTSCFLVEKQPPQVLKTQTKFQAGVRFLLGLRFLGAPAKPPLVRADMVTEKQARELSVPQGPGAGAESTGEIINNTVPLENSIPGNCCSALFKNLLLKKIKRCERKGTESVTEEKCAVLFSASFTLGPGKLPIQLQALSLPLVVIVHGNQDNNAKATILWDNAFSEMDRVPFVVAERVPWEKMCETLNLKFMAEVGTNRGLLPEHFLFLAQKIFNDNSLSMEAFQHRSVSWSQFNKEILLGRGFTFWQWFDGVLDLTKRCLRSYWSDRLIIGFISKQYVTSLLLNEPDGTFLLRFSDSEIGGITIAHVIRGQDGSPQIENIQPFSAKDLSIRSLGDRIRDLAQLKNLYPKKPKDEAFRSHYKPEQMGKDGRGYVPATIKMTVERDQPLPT
In short: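 Displacement of a fluorescent phosphotyrosine peptide (5-FAM-ApYKPFQDLI-NH2, 2 nM) from STAT6(W123-T658) (250 nM), 1% DMSO, pH 7.4 HEPES buffer. After 45 min at room temperature, polarization (mP) was plotted versus log compound concentration and fitted by nonlinear regression to give IC50.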

SMILES | IC50 [1] [µM] | IC50 [2] [µM]
N#C[C@@H]1CN(C(=O)[C@@H]2CC[C@@H]3CCS(=O)(=O)C[C@H](NC(=O)c4cc5cc(C(F)(F)P(=O)(O)O)ccc5s4)C(=O)N32)C[C@H]1c1ccccc1 (single isomer, unassigned) [Compound 8] | 0.1 to 1 | ≤ 0.3
C[C@@H](Cc1ccccc1)C(=O)N1CC[C@H]2CC[C@@H](C(=O)N3CCCC3)N2C(=O)[C@@H](NC(=O)c2cc3cc(C(F)(F)P(=O)(O)O)ccc3s2)C1 [Compound 258, (difluoro(2-(((5S,8S,10aR)-3-((S)-2-methyl-3-phenylpropanoyl)-6-oxo-8-(pyrrolidine-1-carbonyl)decahydropyrrolo[1,2-a][1,5]diazocin-5-yl)carbamoyl)benzo[b]thiophen-5-yl)methyl)phosphonic acid] | 1 to 10 | 0.3 to 3
CC(=O)N1CC[C@H]2CC[C@@H](C(=O)Nc3cnc(S(C)(=O)=O)nc3)N2C(=O)[C@@H](NC(=O)c2cc3cc(C(F)(F)P(=O)(O)O)ccc3s2)C1 [Compound 94, ((2-(((5S,8S,10aR)-3-acetyl-8-((2-(methylsulfonyl)pyrimidin-5-yl)carbamoyl)-6-oxodecahydropyrrolo[1,2-a][1,5]diazocin-5-yl)carbamoyl)benzo[b]thiophen-5-yl)difluoromethyl)phosphonic acid] | 1 to 10 | 0.3 to 3
O=C(N[C@H]1CN(CC(F)F)CC[C@H]2CC[C@@H](C(=O)N3CC(C(=O)N4CCOCC4)C3)N2C1=O)c1cc2cc(C(F)(F)P(=O)(O)O)ccc2s1 [Compound 263, ((2-(((5S,8S,10aR)-3-(2,2-difluoroethyl)-8-(3-(morpholine-4-carbonyl)azetidine-1-carbonyl)-6-oxodecahydropyrrolo[1,2-a][1,5]diazocin-5-yl)carbamoyl)benzo[b]thiophen-5-yl)difluoromethyl)phosphonic acid] | ≤ 0.1 | 3 to 30
N#CC1CN(C(=O)C2CCC3CCS(=N)(=O)CC(NC(=O)c4cc5cc(C(F)(F)P(=O)(O)O)ccc5s4)C(=O)N32)CC1c1ccccc1 (single isomer, unassigned) [Compound 7] | 1 to 10 | 0.3 to 3
CC(=O)N1CC[C@H]2CC[C@@H](C(=O)N3CC(c4cc[nH]c(=O)c4)[C@@H](C#N)C3)N2C(=O)[C@@H](NC(=O)c2cc3cc(C(F)(F)P(=O)(O)O)ccc3s2)C1 (relative stereo) [Compound 145, ((2-(((5S,8S,10aR)-3-acetyl-8-((rel-trans)-3-cyano-4-(2-oxo-1,2-dihydropyridin-4-yl)pyrrolidine-1-carbonyl)-6-oxodecahydropyrrolo[1,2-a][1,5]diazocin-5-yl)carbamoyl)benzo[b]thiophen-5-yl)difluoromethyl)phosphonic acid] | 0.1 to 1 | ≤ 0.3
CC(=O)N1CC[C@H]2CC[C@@H](C(=O)N(C)[C@H]3CN(C(C)=O)C[C@@H]3O)N2C(=O)[C@@H](NC(=O)c2cc3cc(C(F)(F)P(=O)(O)O)ccc3s2)C1 [Compound 183, ((2-(((5S,8S,10aR)-3-acetyl-8-(((3S,4S)-1-acetyl-4-hydroxypyrolidin-3-yl)(methyl)carbamoyl)-6-oxodecaohydrpyrrolo[1,2-a][1,5]diazocin-5-yl)carbamoyl)benzo[b]thiophen-5-yl)difluoromethyl)phosphonic acid] | 1 to 10 | 0.3 to 3
Cc1ccc2[nH]nc(C(=O)N3CC[C@H]4CC[C@@H](C(=O)N(C)C)N4C(=O)[C@@H](NC(=O)c4cc5cc(C(F)(F)P(=O)(O)O)ccc5s4)C3)c2c1 [Compound 231, ((2-(((5S,8S,10aR)-8-(dimethylcarbamoyl)-3-(5-methyl-1H-indazole-3-carbonyl)-6-oxodecahydropyrrolo[1,2-a][1,5]diazocin-5-yl)carbamoyl)benzo[b]thiophen-5-yl)difluoromethyl)phosphonic acid] | 1 to 10 | ≤ 0.3
CC(=O)N1CC[C@H]2CC[C@@H](C(=O)N3C[C@@H](C#N)[C@H](c4ccccc4)C3)N2C(=O)[C@@H](NC(=O)c2cc3cc(C(F)(F)P(=O)(O)O)ccc3[nH]2)C1 (single isomer, unassigned) [Compound 139, ((2-(((5S,8S,10aR)-3-acetyl-8-((3S,4R or 3R,4S)-3-cyano-4-phenylpyrrolidine-1-carbonyl)-6-oxodecahydropyrrolo[1,2-a][1,5]diazocin-5-yl)carbamoyl)-1H-indol-5-yl)difluoromethyl)phosphonic acid] | 1 to 10 | ≤ 0.3
CC(=O)N1CC[C@H]2CC[C@@H](C(=O)N(C)c3ccc(N4CCOCC4)cc3)N2C(=O)[C@@H](NC(=O)c2cc3cc(C(F)(F)P(=O)(O)O)ccc3s2)C1 [Compound 190, ((2-(((5S,8S,10aR)-3-acetyl-8-(methyl(4-morpholinophenyl)carbamoyl)-6-oxodecahydropyrrolo[1,2-a][1,5]diazocin-5-yl)carbamoyl)benzo[b]thiophen-5-yl)difluoromethyl)phosphonic acid] | 1 to 10 | 0.3 to 3
O=C(N[C@H]1CN(c2ccccn2)C[C@H]2CC[C@@H](C(=O)N3CCOCC3)N2C1=O)c1ccc2ccc(C(F)P(=O)(O)O)cc2c1 (stereo partly drawn) [Compound 393, (fluoro(7-(((4S,7S,9aR)-7-(morpholine-4-carbonyl)-5-oxo-2-(pyridin-2-yl)octahydro-1H-pyrrolo[1,2-a][1,4]diazepin-4-yl)carbamoyl)naphthalen-2-yl)methyl) phosphonic acid] | > 10 | > 30
Cc1ccc2onc(C(=O)N3CC[C@H]4CC[C@@H](C(=O)N5CCOC[C@H]5c5ccccc5)N4C(=O)[C@@H](NC(=O)c4ccc5ccc(C(F)P(=O)(O)O)cc5c4)C3)c2c1 (stereo partly drawn) [Compound 371, (fluoro(7-(((5S,8S,10aR)-3-(5-methylbenzo[d]isoxazole-3-carbonyl)-6-oxo-8-((R)-3-phenylmorpholine-4-carbonyl)decahydro-pyrrolo[1,2-a][1,5]diazocin-5-yl)carbamoyl)naphthalen-2-yl)methyl)phosphonic acid] | > 10 | ≤ 0.3
CC(=O)N1CC[C@H]2CC[C@@H](C(=O)N(C)CC(C)(C)O)N2C(=O)[C@@H](NC(=O)c2cc3cc(C(F)(F)P(=O)(O)O)ccc3s2)C1 [Compound 91, ((2-(((5S,8S,10aR)-3-acetyl-8-((2-hydroxy-2-methylpropyl)(methyl)carbamoyl)-6-oxodecahydropyrrolo[1,2-a][1,5]diazocin-5-yl)carbamoyl)benzo[b]thiophen-5-yl)difluoromethyl)phosphonic acid] | 1 to 10 | 0.3 to 3
N#CC1CN(C(=O)C2CCC3CCNCC(NC(=O)c4cc5cc(C(F)(F)P(=O)(O)O)ccc5s4)C(=O)N32)CC1c1ccccc1 (mixture of isomers) [Compound 10, ((2-(((5S,8S,10aR)-8-((rel-trans)-3-cyano-4-phenylpyrrolidine-1-carbonyl)-6-oxodecahydropyrrolo[1,2-a][1,5]diazocin-5-yl)carbamoyl)benzo[b]thiophen-5-yl)difluoromethyl)phosphonic Acid] | 1 to 10 | ≤ 0.3
CC(=O)N1CC[C@H]2CC[C@@H](C(=O)N3C[C@@H](C#N)[C@](C)(c4ccccc4)C3)N2C(=O)[C@@H](NC(=O)c2cc3cc(C(F)(F)P(=O)(O)O)ccc3s2)C1 (relative stereo) [Compound 152, ((2-(((5S,8S,10aR)-3-acetyl-8-((rel-trans)-4-cyano-3-methyl-3-phenylpyrrolidine-1-carbonyl)-6-oxodecahydropyrrolo[1,2-a][1,5]diazocin-5-yl)carbamoyl)benzo[b]thiophen-5-yl)difluoromethyl)phosphonic acid] | 1 to 10 | ≤ 0.3
Cc1ccc2onc(C(=O)N3CC[C@H]4CC[C@@H](C(=O)N5CCOC[C@@H]5c5ccccc5)N4C(=O)[C@@H](NC(=O)c4ccc5ccc(C(F)P(=O)(O)O)cc5c4)C3)c2c1 (stereo partly drawn) [Compound 370, (fluoro(7-(((5S,8S, 10aR)-3-(5-methylbenzo[d]isoxazole-3-carbonyl)-6-oxo-((S)-3-phenylmorpholine-4-carbonyl)decahydro-pyrrolo[1,2-a] [1,5]diazocin-5-yl)carbamoyl)naphthalen-2-yl)methyl)phosphonic acid] | > 10 | ≤ 0.3
CC(=O)N1CC[C@H]2CC[C@@H](C(=O)Nc3ccc(-c4ccccc4)cc3CC#N)N2C(=O)[C@@H](NC(=O)c2cc3cc(C(F)(F)P(=O)(O)O)ccc3s2)C1 [Compound 176, ((2-(((5S,8S,10aR)-3-acetyl-8-((3-(cyanomethyl)-[1,1′-biphenyl]-4-yl)carbamoyl)-6-oxodecahydropyrrolo[1,2-a][1,5]diazocin-5-yl)carbamoyl)benzo[b]thiophen-5-yl)difluoromethyl)phosphonic acid] | 0.1 to 1 | 0.3 to 3
